Source: patent publication US20250115597A1, “TYK2 INHIBITORS AND COMPOSITIONS AND METHODS THEREOF” (LYNK PHARMACEUTICALS CO. LTD., priority 2021, published 2025)
Read-outs that look alike come from different tables or passages of the source.

Columns and labels:
[1] = biological target: T1, TYK2-JH2 domain (Homo sapiens, UniProt P29597); assay: Binding activity test for JH2 domain of TYK2 (Tb-antibody/tracer FRET); conditions: for JAK1/TYK2 selectivity: ratio JAK1-JH2 IC50 / TYK2-JH2 IC50
T1 construct: IC50 on JH2 domain activity (nM)
T1 sequence (P29597 589-875 limits assumed): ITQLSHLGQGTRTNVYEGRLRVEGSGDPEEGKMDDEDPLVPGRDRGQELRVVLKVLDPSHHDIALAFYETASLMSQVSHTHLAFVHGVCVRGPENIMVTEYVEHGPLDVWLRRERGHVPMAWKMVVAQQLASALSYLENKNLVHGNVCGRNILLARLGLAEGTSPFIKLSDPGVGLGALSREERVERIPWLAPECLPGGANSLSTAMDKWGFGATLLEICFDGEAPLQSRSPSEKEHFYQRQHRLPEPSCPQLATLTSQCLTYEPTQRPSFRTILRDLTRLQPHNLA
Procedure, shortened: (§1)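 FRET read-out after 60 min at 25° C plus overnight at 4° C; tracer displacement detected via Tb-labelled antibody on the JH2 domain. Dose-response used 11 points at 3-fold dilution.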

[2] = biological target: T2, Ba/F3-FL-TYK2-P760L cells (Homo sapiens, UniProt P29597, P760L, cells depend on it); assay: Anti-proliferative assay, Ba/F3-FL-TYK2-P760L cells (Cell-Titer Glo); type: cell-based; conditions: 72 h, read-out: BaF3-FL-T2P760L IC50
T2 construct: BaF3-FL-T2P760L (nM)
T2 sequence (P29597 whole entry P760L): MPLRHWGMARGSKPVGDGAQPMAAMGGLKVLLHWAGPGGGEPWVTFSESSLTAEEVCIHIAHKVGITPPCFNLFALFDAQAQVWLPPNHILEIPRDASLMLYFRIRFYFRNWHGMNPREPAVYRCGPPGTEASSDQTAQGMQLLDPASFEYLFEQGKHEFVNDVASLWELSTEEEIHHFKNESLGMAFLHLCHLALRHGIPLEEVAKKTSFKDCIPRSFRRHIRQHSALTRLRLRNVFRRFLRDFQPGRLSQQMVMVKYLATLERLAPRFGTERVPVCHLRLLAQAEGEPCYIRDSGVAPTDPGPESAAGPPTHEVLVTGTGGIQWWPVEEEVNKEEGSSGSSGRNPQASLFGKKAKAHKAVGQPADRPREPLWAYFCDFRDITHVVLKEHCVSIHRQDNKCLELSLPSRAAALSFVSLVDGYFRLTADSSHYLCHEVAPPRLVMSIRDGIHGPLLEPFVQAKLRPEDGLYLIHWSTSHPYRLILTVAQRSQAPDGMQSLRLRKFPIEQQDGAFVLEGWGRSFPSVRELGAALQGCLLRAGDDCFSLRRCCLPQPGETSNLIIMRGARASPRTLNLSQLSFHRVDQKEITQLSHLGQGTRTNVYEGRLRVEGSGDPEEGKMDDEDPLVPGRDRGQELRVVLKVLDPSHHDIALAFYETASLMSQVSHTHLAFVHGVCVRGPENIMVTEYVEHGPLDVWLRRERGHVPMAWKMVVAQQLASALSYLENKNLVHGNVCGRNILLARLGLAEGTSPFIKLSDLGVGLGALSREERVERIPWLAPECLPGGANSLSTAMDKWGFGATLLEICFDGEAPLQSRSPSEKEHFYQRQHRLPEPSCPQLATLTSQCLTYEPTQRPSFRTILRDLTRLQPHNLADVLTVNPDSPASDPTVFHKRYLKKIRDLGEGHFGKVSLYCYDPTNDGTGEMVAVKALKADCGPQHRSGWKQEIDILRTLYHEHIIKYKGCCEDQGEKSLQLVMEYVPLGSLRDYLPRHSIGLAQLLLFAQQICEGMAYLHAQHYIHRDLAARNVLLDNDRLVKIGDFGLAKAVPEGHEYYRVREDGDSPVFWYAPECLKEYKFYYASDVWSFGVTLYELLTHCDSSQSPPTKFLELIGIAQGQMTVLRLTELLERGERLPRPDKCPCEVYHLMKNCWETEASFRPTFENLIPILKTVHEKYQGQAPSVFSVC
Procedure, shortened: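 Compound exposure ran 72 h at 37 °C in 5% CO2 across nine 3-fold concentrations from a 20 μM top dose, added 24 h after seeding 2000 cells/well.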

[3] = test system: pSTAT1; assay: Phosphorylation inhibition of STAT in human whole blood, IFN-alpha stimulated (flow cytometry); type: cell-based; conditions: 20 min, read-out: IC50 on pSTAT1 inhibition in h WB
Procedure, shortened: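 Readout is pSTAT1 (Y701) in CD3-stained cells by flow cytometry, with IC50 derived from a 4-parameter logistic equation. Fresh human PBMC or fresh whole blood received a 20-min Universal Type I IFN-alpha stimulation before fixation and cold permeabilization.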

[4] = test system: pSTAT1; assay: Phosphorylation inhibition of STAT in human PBMC, IFN-alpha stimulated (flow cytometry); type: cell-based; conditions: 20 min, read-out: IC50 on pSTAT1 inhibition in hPBMC
Experimental: Phosphorylation Inhibition of STAT in Human PBMC and Human Whole Blood Testing:
The inhibitory potential of test articles in human PBMC and human whole blood assay was evaluated by the method of flow cytometry.
IFN-alpha will activate JAK1 and TYK2 kinase in T cells by binding to IFN receptors, and then lead to phosphorylation of STAT1 and STAT2. The phosphorylated STAT1 enter nuclear and promote transcription and expression of IFN-gamma. To evaluate the efficacy of TYK2i in T cells, freshly prepared human PBMC or freshly collected human whole blood will be stimulated with certain unit of human IFN-alpha (Universal Type I IFN(1MU), R&D, 11200-2) for 20 mins in incubator. After stimulation, fix cells with Phosflow™ Fix Buffer I (BD, 557870), and then collect fixed cells by centrifugation (500 g, 8 min). Wash cells once with pre-cooled PBS, and then permeabilize cells with cold Perm Buffer III buffer (BD, 558050) for 45 mins on ice. Collect cells by centrifugation (600 g, 8 min) and washed twice with cold PBS. Stain cells with anti-human CD3 (FITC Mouse Anti-Human CD3, BD, 555332) and anti-pSTAT1_Y701(Alexa Fluor 647 Mouse Anti-Stat1 (pY701), BD, 612597) antibodies. Detect pSTAT1 by flow cytometry (CytoFlex S) and analyze data with FlowJo and GraphPad Prism 8 software. IC50 values of test articles were determined using 4-parameter logistic equation.

[5] = biological target: T3, JAK1-JH2 domain (Homo sapiens, UniProt P23458); assay: Binding activity test for JH2 domain of JAK1 (Tb-antibody/tracer FRET)
T3 construct: IC50 on JH2 domain activity (nM)
T3 sequence (P23458 583-855 limits assumed): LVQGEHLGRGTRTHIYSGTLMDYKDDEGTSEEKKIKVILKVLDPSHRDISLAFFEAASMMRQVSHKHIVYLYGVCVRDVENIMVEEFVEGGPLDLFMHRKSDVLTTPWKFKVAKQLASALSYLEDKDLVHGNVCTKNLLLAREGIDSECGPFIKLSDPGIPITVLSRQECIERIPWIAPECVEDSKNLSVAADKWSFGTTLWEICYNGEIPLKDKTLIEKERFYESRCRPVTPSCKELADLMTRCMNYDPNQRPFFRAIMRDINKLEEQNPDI
Procedure, shortened: as §1

[6] = Hepatocytes metabolic stability assay; type: in vitro ADME; conditions: cryopreserved hepatocytes, human hepatocytes, 1.0×10^6 cells/mL; for CLint scaled at 1 μM: read-out: Human hepatocyte Clint(liver); for half-life at 1 μM: read-out: Human hepatocyte stability T1/2
Procedure, shortened: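 Cryopreserved hepatocytes (1.0×10^6 cells/mL final) were incubated with test compound at 1 μM at 37 °C and sampled at 0, 15, 30, 60 and 120 min, with acetonitrile quench and LC-MS/MS. k came from log-linear % remaining versus time, giving T1/2 and CLint.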

[7] = Microsomal metabolic stability assay; type: in vitro ADME; conditions: pH 7.4, 0.5 mg/mL protein, 1 μM compound
Procedure, shortened: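 Parent loss was tracked by LC/MS/MS at 0, 5, 15, 30 and 45 min, with half-life derived from the ln(% remaining)–time slope. Incubation at 37 °C, pH 7.4 phosphate/EDTA buffer: 0.5 mg/mL microsomes, 1 μM compound, NADPH-regenerated (2 mM).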

[8] = biological target: T4, JAK1 (Homo sapiens, UniProt P23458); assay: JAK1 kinase activity, microfluidic assay (Caliper EZ Reader II); type: biochemical; conditions: JAK1 5 nM, 1 mM ATP
T4 construct: purchased Carna Biosciences
T4 sequence (P23458 whole entry): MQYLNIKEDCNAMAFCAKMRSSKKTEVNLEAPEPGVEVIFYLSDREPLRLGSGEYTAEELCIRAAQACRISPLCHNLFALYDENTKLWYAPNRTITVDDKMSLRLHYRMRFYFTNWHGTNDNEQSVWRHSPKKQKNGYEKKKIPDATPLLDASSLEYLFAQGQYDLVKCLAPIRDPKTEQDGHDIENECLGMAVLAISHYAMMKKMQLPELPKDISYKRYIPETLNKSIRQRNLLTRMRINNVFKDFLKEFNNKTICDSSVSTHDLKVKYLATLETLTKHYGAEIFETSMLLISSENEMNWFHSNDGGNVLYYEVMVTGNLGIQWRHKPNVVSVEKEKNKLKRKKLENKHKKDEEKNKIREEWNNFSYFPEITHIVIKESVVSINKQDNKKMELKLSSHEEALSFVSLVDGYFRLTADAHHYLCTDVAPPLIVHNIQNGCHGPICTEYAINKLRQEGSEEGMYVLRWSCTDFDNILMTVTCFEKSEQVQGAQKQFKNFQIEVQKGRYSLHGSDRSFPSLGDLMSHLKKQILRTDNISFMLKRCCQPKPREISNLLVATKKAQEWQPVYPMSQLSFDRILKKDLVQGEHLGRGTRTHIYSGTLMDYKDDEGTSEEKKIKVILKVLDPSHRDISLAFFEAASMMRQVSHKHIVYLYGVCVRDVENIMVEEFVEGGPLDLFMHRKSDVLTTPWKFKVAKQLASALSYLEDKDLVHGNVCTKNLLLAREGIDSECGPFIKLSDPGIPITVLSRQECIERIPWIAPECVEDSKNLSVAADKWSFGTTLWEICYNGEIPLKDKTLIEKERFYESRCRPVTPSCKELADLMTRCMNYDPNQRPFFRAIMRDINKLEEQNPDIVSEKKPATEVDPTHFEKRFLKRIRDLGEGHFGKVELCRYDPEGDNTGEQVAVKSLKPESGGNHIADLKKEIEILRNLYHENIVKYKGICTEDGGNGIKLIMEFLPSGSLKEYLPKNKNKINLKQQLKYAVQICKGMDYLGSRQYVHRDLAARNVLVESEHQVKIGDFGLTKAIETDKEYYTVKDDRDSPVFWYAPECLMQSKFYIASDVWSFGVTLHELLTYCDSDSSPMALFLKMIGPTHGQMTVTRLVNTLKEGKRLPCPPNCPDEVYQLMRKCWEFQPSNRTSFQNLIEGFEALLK
Procedure, shortened: (§2)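 Human JAK1, JAK2 or TYK2 enzyme was used in 50 mM HEPES, 10 mM MgCl2, 2 mM DTT and 0.01% Brij35, tuned to 10% conversion of a FAM-labelled peptide. Threefold dilutions of compound (top 5 µM, 1% DMSO) were pre-incubated with enzyme for 10 min, and reactions were stopped with EDTA. Phosphorylation was read by microfluidic mobility shift, and IC50 came from percent-inhibition curves.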

[9] = biological target: T5, JAK2 (Homo sapiens, UniProt O60674); assay: JAK2 kinase activity, microfluidic assay (Caliper EZ Reader II); type: biochemical; conditions: JAK2 0.125 nM, 1 mM ATP
T5 construct: purchased Carna Biosciences
T5 sequence (O60674 whole entry): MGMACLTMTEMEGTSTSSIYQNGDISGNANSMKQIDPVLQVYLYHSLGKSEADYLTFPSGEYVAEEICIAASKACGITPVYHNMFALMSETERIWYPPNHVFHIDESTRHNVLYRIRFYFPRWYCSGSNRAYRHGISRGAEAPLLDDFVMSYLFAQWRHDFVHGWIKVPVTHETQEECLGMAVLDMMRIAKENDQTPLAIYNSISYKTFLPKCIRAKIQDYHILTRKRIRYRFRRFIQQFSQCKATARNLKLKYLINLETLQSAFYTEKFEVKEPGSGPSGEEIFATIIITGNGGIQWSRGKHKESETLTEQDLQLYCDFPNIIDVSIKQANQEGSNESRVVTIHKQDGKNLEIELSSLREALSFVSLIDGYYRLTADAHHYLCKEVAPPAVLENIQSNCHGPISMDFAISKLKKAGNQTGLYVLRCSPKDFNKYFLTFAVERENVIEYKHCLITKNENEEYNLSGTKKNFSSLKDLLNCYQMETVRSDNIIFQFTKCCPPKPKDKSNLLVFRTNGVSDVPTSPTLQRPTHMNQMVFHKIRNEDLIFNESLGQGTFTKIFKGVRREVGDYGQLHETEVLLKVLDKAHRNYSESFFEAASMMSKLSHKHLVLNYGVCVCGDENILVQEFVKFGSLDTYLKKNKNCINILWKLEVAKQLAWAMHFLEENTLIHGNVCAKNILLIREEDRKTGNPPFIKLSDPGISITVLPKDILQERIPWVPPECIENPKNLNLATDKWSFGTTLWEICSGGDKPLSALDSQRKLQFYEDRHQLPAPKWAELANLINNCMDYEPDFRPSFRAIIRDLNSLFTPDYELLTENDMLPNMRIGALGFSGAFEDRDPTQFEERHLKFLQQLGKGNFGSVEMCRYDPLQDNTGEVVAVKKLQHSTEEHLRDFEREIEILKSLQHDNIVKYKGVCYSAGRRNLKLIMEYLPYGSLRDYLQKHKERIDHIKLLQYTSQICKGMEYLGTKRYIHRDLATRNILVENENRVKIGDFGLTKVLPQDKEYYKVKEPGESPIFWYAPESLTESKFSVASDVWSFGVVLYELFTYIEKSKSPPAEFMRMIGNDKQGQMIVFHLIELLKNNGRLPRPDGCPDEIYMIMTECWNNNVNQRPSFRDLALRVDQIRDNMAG
Procedure, shortened: as §2

[10] = biological target: T6, TYK2 (Homo sapiens, UniProt P29597); assay: TYK2 kinase activity, microfluidic assay (Caliper EZ Reader II); type: biochemical; conditions: TYK2 1 nM, 1 mM ATP
T6 construct: purchased Carna Biosciences
T6 sequence (P29597 whole entry): as the sequence (P29597 whole entry P760L) above, with L760P counted along it
Procedure, shortened: as §2

[11] = Plasma protein binding by equilibrium dialysis; type: in vitro ADME; conditions: human plasma, equilibrium dialysis 5 hours at 37° C.; read-out: % Bound (human) (converted)
Procedure, shortened: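 Compound spiked into plasma at 0.2 and 2 μM was dialyzed against PBS for 5 h at 37° C with shaking, in duplicate. Plasma and buffer chambers were matrix-matched, protein-precipitated and analysed by LC-MS/MS to derive % unbound, % bound and % recovery.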

[12] = human whole blood, IFN-alpha 20 mins, CD3 cells
[13] = human PBMC, IFN-alpha 20 mins, CD3 cells

SMILES	IC50 [1] [nM]	GI50 [2] [nM]	IC50 [3, 12] [nM]	IC50 [4, 13] [nM]	CLint scaled at 1 μM [6] [mL/min/kg]	half-life at 1 μM [6] [h]	further results
[2H]C([2H])([2H])NC(=O)c1cnc(Nc2ccc(F)cn2)cc1Nc1cn(C)c2c(F)cn(CC)c(=O)c12 [Example 125, 4-((5-Ethyl-7-fluoro-1-methyl-4-oxo-4,5-dihydro-1H-pyrrolo[3,2-c]pyridin-3-yl)amino)-6-((5-fluoropyridin-2-yl)amino)-N-(methyl-d3)nicotinamide]	1.44	31.9	581	75.7	–	–	–
[2H]C([2H])([2H])NC(=O)c1cnc(NC(=O)C2CC2)cc1Nc1ccn2ncc(C)c2c1OC [Example 169, 6-(Cyclopropanecarboxamido)-4-((4-methoxy-3-methylpyrazolo[1,5-a]pyridin-5-yl)amino)-N-(methyl-d3)nicotinamide]	0.31	64.9	422	35.1	8.6	3.44	JAK1/TYK2 selectivity [1]: 28.3; IC50 [5]: 8.76 nM
[2H]C([2H])([2H])NC(=O)c1cnc(NC(=O)C2CC2)cc1Nc1ccc2cnn(CC#N)c2c1OC [Example 202, 4-((1-(Cyanomethyl)-7-methoxy-1H-indazol-6-yl)amino)-6-(cyclopropanecarboxamido)-N-(methyl-d3)nicotinamide]	–	45.7	147	33.3	–	–	IC50 [8]: > 5000 nM; IC50 [9]: > 5000 nM; IC50 [10]: > 5000 nM; fraction unbound at 5 h [11]: 0.113
[2H]C([2H])([2H])NC(=O)c1cnc(NC(=O)C2CC2)cc1Nc1csc2cnn(CC)c(=O)c12 [Example 231, 6-(Cyclopropanecarboxamido)-4-((5-ethyl-4-oxo-4,5-dihydrothieno[2,3-d]pyridazin-3-yl)amino)-N-(methyl-d3)nicotinamide]	0.979	65.9	–	–	–	–	IC50 ([3]; Homo sapiens): 14400 nM; IC50 ([4]; Homo sapiens, PBMC): 3510 nM

Continued, in another order:

IC50 [1] [nM]	GI50 [2] [nM]	IC50 [3, 12] [nM]	IC50 [4, 13] [nM]	CLint scaled at 1 μM [6] [mL/min/kg]	half-life at 1 μM [6] [h]	SMILES	further results
0.154	51.6	471	20.7	11.2	2.61	[2H]C([2H])([2H])NC(=O)c1cnc(NC(=O)C2CC2)cc1Nc1ccn2ncc(CC)c2c1OC [Example 166, 6-(Cyclopropanecarboxamido)-4-((3-ethyl-4-methoxypyrazolo[1,5-a]pyridin-5-yl)amino)-N-(methyl-d3)nicotinamide]	JAK1/TYK2 selectivity [1]: 88.3; IC50 [5]: 13.6 nM
–	54.3	863	428	< 7.35	> 4	[2H]C([2H])([2H])NC(=O)c1nnc(NC(=O)C2CC2)cc1Nc1csc2ccn(CC)c(=O)c12 [Example 197, 6-(Cyclopropanecarboxamido)-N-(methyl-d3)-4-((5-ethyl-4-oxo-4,5-dihydrothieno[3,2-c]pyridin-3-yl)amino)pyridazine-3-carboxamide]	microsomal CLint at 1 μM ([7]; dog liver microsomes, read-out: Dog LM Clint): 20.8 µL/min/mg; half-life at 1 μM ([7]; dog liver microsomes, read-out: Dog LM T½): 1.11 h; microsomal CLint at 1 μM ([7]; human liver microsomes, read-out: Human LM Clint): 77.7 µL/min/mg; half-life at 1 μM ([7]; human liver microsomes, read-out: Human LM T½): 0.298 h; microsomal CLint at 1 μM ([7]; rat liver microsomes, read-out: Rat LM Clint): 290 µL/min/mg; half-life at 1 μM ([7]; rat liver microsomes, read-out: Rat LM T½): 0.0798 h
0.25	74.5	376	107	–	–	[2H]C([2H])([2H])NC(=O)c1cnc(NC(=O)C2CC2)cc1Nc1cn(CC2CC2)c2ncn(CC)c(=O)c12 [Example 213, 6-(Cyclopropanecarboxamido)-4-((7-(cyclopropylmethyl)-3-ethyl-4-oxo-4,7-dihydro-3H-pyrrolo[2,3-d]pyrimidin-5-yl)amino)-N-(methyl-d3)nicotinamide]	fraction unbound at 5 h [11]: 0.025
